Where a name gives a salt, the structure may show the parent alone.
Target: T1, PDE4B (human recombinant) (Homo sapiens, UniProt Q07343)
T1 construct: made in house
Experiment: Inhibition of PDE4B activity: SPA and/or Fluorescence Polarisation (FP) assay
Type: biochemical
Details: one reading (n=1) or average of 2 or more readings, read-out: PDE4B pIC50 (±about 0.5) (converted)
Method in brief: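 Human recombinant PDE4B activity measured by SPA with [3H]cAMP at about 10 nM, 1 h at ambient temperature, enzyme set for ≤20% substrate hydrolysis, or by IMAP FP with Fl-cAMP at about 40 nM, 40 min at ambient temperature under linear conditions. Inhibition curves fitted; values reported as pIC50.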

T1 sequence (Q07343 1-564 isoform Q07343-2): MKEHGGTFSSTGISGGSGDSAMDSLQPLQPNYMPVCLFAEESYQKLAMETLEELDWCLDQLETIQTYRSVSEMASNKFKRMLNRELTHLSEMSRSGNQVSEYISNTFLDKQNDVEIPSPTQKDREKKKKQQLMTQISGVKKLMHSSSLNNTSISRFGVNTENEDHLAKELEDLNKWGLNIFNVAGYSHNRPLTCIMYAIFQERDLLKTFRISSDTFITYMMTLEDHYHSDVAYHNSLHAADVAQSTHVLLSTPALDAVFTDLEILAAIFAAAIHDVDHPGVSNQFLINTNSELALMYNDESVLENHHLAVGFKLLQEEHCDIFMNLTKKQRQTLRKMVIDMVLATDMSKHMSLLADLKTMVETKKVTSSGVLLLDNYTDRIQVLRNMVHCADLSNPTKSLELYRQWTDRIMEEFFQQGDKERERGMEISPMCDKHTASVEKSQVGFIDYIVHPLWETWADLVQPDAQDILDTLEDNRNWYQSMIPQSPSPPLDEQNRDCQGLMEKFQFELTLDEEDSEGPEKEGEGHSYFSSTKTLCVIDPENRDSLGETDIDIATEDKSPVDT

**Q.** CCn1ncc2c(NC3CCN(C(N)=O)CC3)c(CNC(=O)c3ccc(N4CCOCC4)cc3)c(C)nc21 [Example 303, 4-({1-ethyl-6-methyl-5-[({[4-(4-morpholinyl)phenyl]-carbonyl}amino)methyl]-1H-pyrazolo[3,4-b]pyridin-4-yl}amino)-1-piperidine-carboxamide, Formate Salt] was tested. Which IC50 did it give?
**A.** Its IC50 is 0.01 to 0.1 nM.

**Q.** With CCc1nc2c(cnn2CC)c(NC2CCN(C(N)=O)CC2)c1CNC(=O)c1ccc(NC(C)=O)c2c1OCC2 [Example 304, 4-({5-[({[4-(acetylamino)-2,3-dihydro-1-benzofuran-7-yl]carbonyl}amino)methyl]-1,6-diethyl-1H-pyrazolo[3,4-b]pyridin-4-yl}amino)-1-piperidinecarboxamide] as the compound, how does the IC50 read?
**A.** The IC50 was 0.01 to 0.1 nM.

**Q.** For CCn1ncc2c(NC3CCN(C(N)=O)CC3)c(CNC(=O)c3ccc(NC(C)=O)c4c3OCC4)c(C)nc21 [Example 305, 4-({5-[({[4-(acetylamino)-2,3-dihydro-1-benzofuran-7-yl]carbonyl}amino)methyl]-1-ethyl-6-methyl-1H-pyrazolo[3,4-b]pyridin-4-yl}amino)-1-piperidinecarboxamide], which IC50 is on record?
**A.** The IC50 was 0.01 to 0.1 nM.

**Q.** Which IC50 does the source give for CCc1nc2c(cnn2CC)c(NC2CCOCC2)c1CNC(=O)c1ccc(NC(C)=O)c2c1OCC2 [Example 306, 4-(acetylamino)-N-{[1,6-diethyl-4-(tetrahydro-2H-pyran-4-ylamino)-1H-pyrazolo[3,4-b]pyridin-5-yl]methyl}-2,3-dihydro-1-benzofuran-7-carboxamide] here?
**A.** Its IC50 is 0.01 to 0.1 nM.

**Q.** For CCc1nc2c(cnn2CC)c(NC2CCOCC2)c1CNC(=O)c1ccc(F)cc1 [Example 307, N-{[1,6-diethyl-4-(tetrahydro-2H-pyran-4-ylamino)-1H-pyrazolo[3,4-b]pyridin-5-yl]methyl}-4-fluorobenzamide], which IC50 is on record?
**A.** The IC50 was 0.126 to 1 nM.

**Q.** Which IC50 does the source give for CCc1nc2c(cnn2CC)c(NC2CCOCC2)c1CNC(=O)c1ccc(F)cc1F [Example 308, N-{[1,6-diethyl-4-(tetrahydro-2H-pyran-4-ylamino)-1H-pyrazolo[3,4-b]pyridin-5-yl]methyl}-2,4-difluorobenzamide] here?
**A.** The IC50 was 0.126 to 1 nM.

**Q.** CCc1nc2c(cnn2CC)c(NC2CCOCC2)c1CNC(=O)c1csc(C)n1 [Example 309, N-{[1,6-diethyl-4-(tetrahydro-2H-pyran-4-ylamino)-1H-pyrazolo[3,4-b]pyridin-5-yl]methyl}-2-methyl-1,3-thiazole-4-carboxamide] was tested. Which IC50 did it give?
**A.** The IC50 was 0.126 to 1 nM.

**Q.** How did the IC50 turn out when CCc1nc2c(cnn2CC)c(NC2CCOCC2)c1CNC(=O)c1coc(C)n1 [Example 310, N-{[1,6-diethyl-4-(tetrahydro-2H-pyran-4-ylamino)-1H-pyrazolo[3,4-b]pyridin-5-yl]methyl}-2-methyl-1,3-oxazole-4-carboxamide] was run?
**A.** Its IC50 is 0.126 to 1 nM.

**Q.** Which IC50 does the source give for CCc1nc2c(cnn2CC)c(NC2CCOCC2)c1CNC(=O)c1cnc(C)s1 [Example 311, N-{[1,6-diethyl-4-(tetrahydro-2H-pyran-4-ylamino)-1H-pyrazolo[3,4-b]pyridin-5-yl]methyl}-2-methyl-1,3-thiazole-5-carboxamide] here?
**A.** The IC50 was 0.01 to 0.1 nM.

**Q.** How did the IC50 turn out when CCn1ncc2c(NC3CCOCC3)c(CNC(=O)c3ccc(F)cc3F)c(C)nc21 [Example 312, N-{[1-ethyl-6-methyl-4-(tetrahydro-2H-pyran-4-ylamino)-1H-pyrazolo[3,4-b]pyridin-5-yl]methyl}-2,4-difluorobenzamide] was run?
**A.** Its IC50 is 0.126 to 1 nM.

**Q.** CCn1ncc2c(NC3CCOCC3)c(CNC(=O)c3ccc(F)cc3)c(C)nc21 [Example 313, N-{[1-ethyl-6-methyl-4-(tetrahydro-2H-pyran-4-ylamino)-1H-pyrazolo[3,4-b]pyridin-5-yl]methyl}-4-fluorobenzamide] was tested. Which IC50 did it give?
**A.** The IC50 was 0.126 to 1 nM.

**Q.** With CCn1ncc2c(NC3CCOCC3)c(CN3Cc4ccc(F)cc4C3=O)c(C)nc21 [Example 314, 2-{[1-ethyl-6-methyl-4-(tetrahydro-2H-pyran-4-ylamino)-1H-pyrazolo[3,4-b]pyridin-5-yl]methyl}-6-fluoro-2,3-dihydro-1H-isoindol-1-one] as the compound, how does the IC50 read?
**A.** Its IC50 is 0.126 to 1 nM.

**Q.** CCc1nc2c(cnn2CC)c(NC2CCOCC2)c1CN1Cc2ccc(F)cc2C1=O [Example 315, 2-{[1,6-diethyl-4-(tetrahydro-2H-pyran-4-ylamino)-1H-pyrazolo[3,4-b]pyridin-5-yl]methyl}-6-fluoro-2,3-dihydro-1H-isoindol-1-one] was tested. Which IC50 did it give?
**A.** Its IC50 is 0.01 to 0.1 nM.

**Q.** How did the IC50 turn out when CCn1ncc2c(NC3CCOCC3)c(CN3Cc4ccc(C(F)(F)F)cc4C3=O)c(C)nc21 [Example 316, 2-{[1-ethyl-6-methyl-4-(tetrahydro-2H-pyran-4-ylamino)-1H-pyrazolo[3,4-b]pyridin-5-yl]methyl}-6-(trifluoromethyl)-2,3-dihydro-1H-isoindol-1-one] was run?
**A.** Its IC50 is 0.01 to 0.1 nM.

**Q.** Which IC50 does the source give for CCc1nc2c(cnn2CC)c(NC2CCOCC2)c1CN1Cc2ccc(C(F)(F)F)cc2C1=O [Example 317, 2-{[1,6-diethyl-4-(tetrahydro-2H-pyran-4-ylamino)-1H-pyrazolo[3,4-b]pyridin-5-yl]methyl}-6-(trifluoromethyl)-2,3-dihydro-1H-isoindol-1-one] here?
**A.** Its IC50 is 0.01 to 0.1 nM.

**Q.** CCn1ncc2c(NC3CCOCC3)c(CNC(=O)c3coc(C)n3)c(C)nc21 [Example 318, N-{[1-ethyl-6-methyl-4-(tetrahydro-2H-pyran-4-ylamino)-1H-pyrazolo[3,4-b]pyridin-5-yl]methyl}-2-methyl-1,3-oxazole-4-carboxamide] was tested. Which IC50 did it give?
**A.** Its IC50 is 0.126 to 1 nM.

**Q.** With CCn1ncc2c(NC3CCOCC3)c(CNC(=O)c3csc(C(F)(F)F)n3)c(C)nc21 [Example 319, N-{[1-ethyl-6-methyl-4-(tetrahydro-2H-pyran-4-ylamino)-1H-pyrazolo[3,4-b]pyridin-5-yl]methyl}-2-(trifluoromethyl)-1,3-thiazole-4-carboxamide] as the compound, how does the IC50 read?
**A.** The IC50 was 0.126 to 1 nM.

**Q.** CCn1ncc2c(NC3CCOCC3)c(CNC(=O)c3cnc(C)s3)c(C)nc21 [Example 322, N-{[1-ethyl-6-methyl-4-(tetrahydro-2H-pyran-4-ylamino)-1H-pyrazolo[3,4-b]pyridin-5-yl]methyl}-2-methyl-1,3-thiazole-5-carboxamide] was tested. Which IC50 did it give?
**A.** The IC50 was 0.126 to 1 nM.

**Q.** With CCc1nc2c(cnn2CC)c(NC2CCOCC2)c1CNC(=O)c1ccc(C(F)(F)F)o1 [Example 323, N-{[1,6-diethyl-4-(tetrahydro-2H-pyran-4-ylamino)-1H-pyrazolo[3,4-b]pyridin-5-yl]methyl}-5-(trifluoromethyl)-2-furancarboxamide] as the compound, how does the IC50 read?
**A.** Its IC50 is 0.01 to 0.1 nM.

**Q.** With CCn1ncc2c(NC3CCOCC3)c(CNC(=O)c3ccc(C(F)(F)F)o3)c(C)nc21 [Example 324, N-{[1-ethyl-6-methyl-4-(tetrahydro-2H-pyran-4-ylamino)-1H-pyrazolo[3,4-b]pyridin-5-yl]methyl}-5-(trifluoromethyl)-2-furancarboxamide] as the compound, how does the IC50 read?
**A.** Its IC50 is 0.126 to 1 nM.

**Q.** How did the IC50 turn out when CCc1nc2c(cnn2CC)c(NC2CCOCC2)c1CNC(=O)c1ccc(C#N)nc1 [Example 325, 6-cyano-N-{[1,6-diethyl-4-(tetrahydro-2H-pyran-4-ylamino)-1H-pyrazolo[3,4-b]pyridin-5-yl]methyl}-3-pyridinecarboxamide] was run?
**A.** Its IC50 is 0.126 to 1 nM.

**Q.** CCc1nc2c(cnn2CC)c(NC2CCOCC2)c1CNC(=O)c1ccc(C(F)(F)F)nc1 [Example 326, N-{[1,6-diethyl-4-(tetrahydro-2H-pyran-4-ylamino)-1H-pyrazolo[3,4-b]pyridin-5-yl]methyl}-6-(trifluoromethyl)-3-pyridinecarboxamide] was tested. Which IC50 did it give?
**A.** The IC50 was 0.126 to 1 nM.

**Q.** With CCc1nc2c(cnn2CC)c(NC2CCOCC2)c1CNC(=O)c1cnc(C)nc1 [Example 331, N-{[1,6-diethyl-4-(tetrahydro-2H-pyran-4-ylamino)-1H-pyrazolo[3,4-b]pyridin-5-yl]methyl}-2-methyl-5-pyrimidinecarboxamide] as the compound, how does the IC50 read?
**A.** Its IC50 is 0.126 to 1 nM.

**Q.** CCc1nc2c(cnn2CC)c(NC2CCOCC2)c1CNC(=O)c1ccc(C)nc1 [Example 334, N-{[1,6-diethyl-4-(tetrahydro-2H-pyran-4-ylamino)-1H-pyrazolo[3,4-b]pyridin-5-yl]methyl}-6-methyl-3-pyridinecarboxamide] was tested. Which IC50 did it give?
**A.** The IC50 was 0.126 to 1 nM.

**Q.** How did the IC50 turn out when CCc1nc2c(cnn2CC)c(NC2CCOCC2)c1CNC(=O)c1oc(C)nc1C [Example 335, N-{[1,6-diethyl-4-(tetrahydro-2H-pyran-4-ylamino)-1H-pyrazolo[3,4-b]pyridin-5-yl]methyl}-2,4-dimethyl-1,3-oxazole-5-carboxamide formate] was run?
**A.** The IC50 was 0.126 to 1 nM.

**Q.** CCn1ncc2c(NC3CCOCC3)c(CNC(=O)c3cnc(C(C)(C)C)nc3)c(C)nc21 [Example 336, 2-(1,1-dimethylethyl)-N-{[1-ethyl-6-methyl-4-(tetrahydro-2H-pyran-4-ylamino)-1H-pyrazolo[3,4-b]pyridin-5-yl]methyl}-5-pyrimidinecarboxamide] was tested. Which IC50 did it give?
**A.** The IC50 was 0.126 to 1 nM.

**Q.** How did the IC50 turn out when CCn1ncc2c(NC3CCOCC3)c(CNC(=O)c3ccc(C)nc3)c(C)nc21 [Example 337, N-{[1-ethyl-6-methyl-4-(tetrahydro-2H-pyran-4-ylamino)-1H-pyrazolo[3,4-b]pyridin-5-yl]methyl}-6-methyl-3-pyridinecarboxamide] was run?
**A.** Its IC50 is 0.126 to 1 nM.

**Q.** How did the IC50 turn out when CCc1nc2c(cnn2CC)c(NC2CCOCC2)c1CNC(=O)c1csc(C(F)(F)F)n1 [Example 339, N-{[1,6-diethyl-4-(tetrahydro-2H-pyran-4-ylamino)-1H-pyrazolo[3,4-b]pyridin-5-yl]methyl}-2-(trifluoromethyl)-1,3-thiazole-4-carboxamide] was run?
**A.** The IC50 was 0.01 to 0.1 nM.

**Q.** Which IC50 does the source give for CCc1nc2c(cnn2CC)c(NC2CCOCC2)c1CNC(=O)C1CCN(S(C)(=O)=O)CC1 [Example 341, N-{[1,6-diethyl-4-(tetrahydro-2H-pyran-4-ylamino)-1H-pyrazolo[3,4-b]pyridin-5-yl]methyl}-1-(methylsulfonyl)-4-piperidinecarboxamide] here?
**A.** The IC50 was 0.126 to 1 nM.

**Q.** With CCc1nc2c(cnn2CC)c(NC2CCOCC2)c1CN1CCN(C)C1=O [Example 343, 1-{[1,6-diethyl-4-(tetrahydro-2H-pyran-4-ylamino)-1H-pyrazolo[3,4-b]pyridin-5-yl]methyl}-3-methyl-2-imidazolidinone] as the compound, how does the IC50 read?
**A.** The IC50 was 0.126 to 1 nM.

**Q.** For CCc1nc2c(cnn2CC)c(NC2CCOCC2)c1CN1Cc2nnsc2C1=O [Example 344, 5-{[1,6-diethyl-4-(tetrahydro-2H-pyran-4-ylamino)-1H-pyrazolo[3,4-b]pyridin-5-yl]methyl}-4,5-dihydro-6H-pyrrolo[3,4-d][1,2,3]thiadiazol-6-one], which IC50 is on record?
**A.** Its IC50 is 0.126 to 1 nM.

— patent publication US20090131431A1, “Pyrazolo[3,4-b]pyridine compounds, and their use as a PDE4 inhibitors” (priority 2005, published 2009)
